Assay results: US10239870B2, “Dopamine D3 receptor antagonists” (priority 2014, dated 2019)
Counter-ions that a name gives are not always drawn.

Assays:
[1] = target: hD2 recombinant receptor (human dopamine receptor type 2, long variant, CHO-Gα16-hD2L cells) (Homo sapiens (Human), UniProt P14416); test: cell-based; details: D2 fpKi, functional pKi; antagonism of dopamine EC80 calcium response (FLIPR)
[2] = target: hD2 recombinant receptor (human dopamine receptor type 2, long variant, CHO-Gα16-hD2L membranes) (Homo sapiens (Human), UniProt P14416); details: displacement of 0.08 nM [3H]-Spiperone

SMILES	Ki [1] [µM]	D2 pKi [2]
Cn1c(SCCCN2CC[C@]3(C[C@@H]3c3ccc(C(F)(F)F)cc3)C2)nnc1-c1ccno1 [Example 229, (1R,3S/1S,3R)-5-(3-{[4-methyl-5-(1,2-oxazol-5-yl)-4H-1,2,4-triazol-3-yl]sulfanyl}propyl)-1-[4-(trifluoromethyl)phenyl]-5-azaspiro[2.4]heptane]	2.34	
Cn1c(SCCCN2CC[C@]3(CC3c3ccc(C(F)(F)F)cc3F)C2)nnc1-c1ccncn1 (stereo partly drawn) [Example 213, (1S,3S/1R,3R)-1-[2-fluoro-4-(trifluoromethyl)phenyl]-5-(3-{[4-methyl-5-(pyrimidin-4-yl)-4H-1,2,4-triazol-3-yl]sulfanyl}propyl)-5-azaspiro[2.4]heptane]	0.0813	
Cc1ncoc1-c1nnc(SCCCN2CCC[C@]3(C[C@@H]3c3ccc(C(F)(F)F)cc3)C2)n1C [Example 313, (1S,3S/1R,3R)-5-(3-{[4-methyl-5-(4-methyl-1,3-oxazol-5-yl)-4H-1,2,4-triazol-3-yl]sulfanyl}propyl)-1-[4-(trifluoromethyl)phenyl]-5-azaspiro[2.5]octane]	> 10	
Cn1c(SCCCN2CC[C@]3(CC3c3ccc(C(F)(F)F)cc3F)C2)nnc1C1CCOCC1 (single isomer, unassigned) [Example 71]	> 10	
Cn1c(SCCCN2CC[C@@]3(C[C@@H]3c3ccc(C(F)(F)F)cc3F)C2)nnc1C1CCOCC1 (single isomer, unassigned) [Example 74, (1S,3R or 1R,3S)-1-[2-fluoro-4-(trifluoromethyl)phenyl]-5-(3-{[4-methyl-5-(oxan-4-yl)-4H-1,2,4-triazol-3-yl]sulfanyl}propyl)-5-azaspiro[2.4]heptane hydrochloride]	1.26	
Cn1c(SCCCN2CC[C@]3(CC3c3ccc(C(F)(F)F)cc3)C2)nnc1N1CCOCC1 (single isomer, unassigned) [Example 114, hydrochloride]	1.62	
Cn1c(CCCCN2CC[C@]3(C[C@@H]3c3ccc(C(F)(F)F)cc3F)C2)nnc1C1CCOCC1 (single isomer, unassigned) [Example 295, hydrochloride]	0.871	
Cn1c(SCCCN2CC[C@]3(CC3c3ccc(C(F)(F)F)cc3F)C2)nnc1C1CCOCC1 (single isomer, unassigned) [Example 76]	0.708	
Cn1c(CCCCN2CC[C@]3(CC3c3ccc(C(F)(F)F)cc3)C2)nnc1C1CCOCC1 (stereo partly drawn) [Example 296, (1S,3S/1R,3R)-5-{4-[4-methyl-5-(oxan-4-yl)-4H-1,2,4-triazol-3-yl]butyl}-1-[4-(trifluoromethyl)phenyl]-5-azaspiro[2.4]heptane]	> 10	
Cn1c(CCCCN2CC[C@]3(C[C@H]3c3ccc(C(F)(F)F)cc3)C2)nnc1C1CCOCC1 (single isomer, unassigned) [Example 299, (1S,3S or 1R,3R)-5-{4-[4-methyl-5-(oxan-4-yl)-4H-1,2,4-triazol-3-yl]butyl}-1-[4-(trifluoromethyl)phenyl]-5-azaspiro[2.4]heptane hydrochloride]	> 10	
Cc1ncoc1-c1nnc(SCCCN2CCC3(CCC3c3ccccc3)C2)n1C (single isomer, unassigned) [Example 321, (1R,4S or 1S,4R or 1S,4S or 1R,4R)-6-(3-{[4-methyl-5-(4-methyl-1,3-oxazol-5-yl)-4H-1,2,4-triazol-3-yl]sulfanyl}propyl)-1-phenyl-6-azaspiro[3.4]octane hydrochloride]	2.24	
CC(=O)N1CCC(c2nnc(SCCCN3CC[C@]4(C[C@@H]4c4ccc(C(F)(F)F)cc4)C3)n2C)CC1 (single isomer, unassigned) [Example 100]	1.17	
Cn1c(SCCCN2CC[C@]3(CC3c3ccc(C(F)(F)F)cc3)C2)nnc1C1CCC(N)CC1 (stereo partly drawn) [Example 108, 4-[4-methyl-5-({3-[(1R,3S/1S,3R)-1-[4-(trifluoromethyl)phenyl]-5-azaspiro[2.4]heptan-5-yl]propyl}sulfanyl)-4H-1,2,4-triazol-3-yl]cyclohexan-1-amine]		6.72
Cc1ncoc1-c1nnc(SCCCN2CCC3(CC2)C[C@@H]3c2ccccc2)n1C (single isomer, unassigned) [Example 309, (1S or 1R)-6-(3-{[4-methyl-5-(4-methyl-1,3-oxazol-5-yl)-4H-1,2,4-triazol-3-yl]sulfanyl}propyl)-1-phenyl-6-azaspiro[2.5]octane hydrochloride]	1.12	
Cn1c(SCCCN2CC[C@]3(CC3c3ccc(F)cc3)C2)nnc1-c1ccc(=O)[nH]c1 (stereo partly drawn) [Example 131, 5-[5-({3-[(1R,3S/1S,3R)-1-(4-fluorophenyl)-5-azaspiro[2.4]heptan-5-yl]propyl}sulfanyl)-4-methyl-4H-1,2,4-triazol-3-yl]-1,2-dihydropyridin-2-one]		6.16
Cc1ccc(C(N)=O)nc1-c1nnc(SCCCN2CC[C@]3(C[C@@H]3c3ccc(C(F)(F)F)cc3)C2)n1C.Cl [Example 199, 5-methyl-6-[4-methyl-5-({3-[(1R,3S)-1-[4-(trifluoromethyl)phenyl]-5-azaspiro[2.4]heptan-5-yl]propyl}sulfanyl)-4H-1,2,4-triazol-3-yl]pyridine-2-carboxamide hydrochloride]		5.81
Cn1c(SCCCN2CC[C@]3(CC3c3ccc(C(F)(F)F)cc3)C2)nnc1-c1ccc[nH]c1=O (stereo partly drawn) [Example 124, 3-[4-methyl-5-({3-[(1R,3S/1S,3R)-1-[4-(trifluoromethyl)phenyl]-5-azaspiro[2.4]heptan-5-yl]propyl}sulfanyl)-4H-1,2,4-triazol-3-yl]-1,2-dihydropyridin-2-one]		5.32
Cc1ncoc1-c1nnc(SCCCN2CC[C@]3(CC3c3ccc(C(F)(F)F)nc3)C2)n1C (stereo partly drawn) [Example 61, (1R,3S/1S,3R)-5-(3-{[4-methyl-5-(4-methyl-1,3-oxazol-5-yl)-4H-1,2,4-triazol-3-yl]sulfanyl}propyl)-1-[6-(trifluoromethyl)pyridin-3-yl]-5-azaspiro[2.4]heptane]		5.63
Cc1ccc(-c2nnc(SCCCN3CC[C@]4(CC4c4ccc(C(F)(F)F)cc4)C3)n2C)cn1 (stereo partly drawn) [Example 169, (1R,3S/1S,3R)-5-(3-{[4-methyl-5-(6-methylpyridin-3-yl)-4H-1,2,4-triazol-3-yl]sulfanyl}propyl)-1-[4-(trifluoromethyl)phenyl]-5-azaspiro[2.4]heptane]		6.01

Other lines, results leading:

Ki [1] [µM]	D2 pKi [2]	SMILES
0.363		Cn1c(SCCCN2CC[C@]3(C[C@@H]3c3ccc(C(F)(F)F)cc3F)C2)nnc1C1CCOCC1 (single isomer, unassigned) [Example 79, hydrochloride]
> 10		Cn1c(CCCCN2CC[C@@]3(C[C@@H]3c3ccc(C(F)(F)F)cc3)C2)nnc1C1CCOCC1 (single isomer, unassigned) [Example 300, (1R,3R or 1S,3S)-5-{4-[4-methyl-5-(oxan-4-yl)-4H-1,2,4-triazol-3-yl]butyl}-1-[4-(trifluoromethyl)phenyl]-5-azaspiro[2.4]heptane hydrochloride]
> 10		Cn1c(SCCCN2CC[C@]3(C[C@H]3c3ccc(C(F)(F)F)cc3F)C2)nnc1C1CCOCC1 (single isomer, unassigned) [Example 75, (1R,3S or 1S,3R)-1-[2-fluoro-4-(trifluoromethyl)phenyl]-5-(3-{[4-methyl-5-(oxan-4-yl)-4H-1,2,4-triazol-3-yl]sulfanyl}propyl)-5-azaspiro[2.4]heptane hydrochloride]
2.24		CC(=O)N1CCC(c2nnc(SCCCN3CC[C@]4(C[C@@H]4c4ccc(C(F)(F)F)cc4)C3)n2C)CC1 [Example 99, 1-{4-[4-methyl-5-({3-[(1R,3S/1S,R3)-1-[4-(trifluoromethyl)phenyl]-5-azaspiro[2.4]heptan-5-yl]propyl}sulfanyl)-4H-1,2,4-triazol-3-yl]piperidin-1-yl}ethan-1-one]
1.45		Cc1ncoc1-c1nnc(CCCCN2CC[C@]3(CC3c3ccc(C(F)(F)F)cc3)C2)n1C (stereo partly drawn) [Example 301, (1R,3S/1S,3R)-5-{4-[4-methyl-5-(4-methyl-1,3-oxazol-5-yl)-4H-1,2,4-triazol-3-yl]butyl}-1-[4-(trifluoromethyl)phenyl]-5-azaspiro[2.4]heptane hydrochloride]
> 10		Cn1c(SCCCN2CC[C@]3(C[C@@H]3c3ccccc3)C2)nnc1C1CCOCC1 (single isomer, unassigned) [Example 83, hydrochloride]
	6.44	Cc1ncccc1-c1nnc(SCCCN2CC[C@]3(CC3c3ccccc3C(F)(F)F)C2)n1C.Cl.Cl (stereo partly drawn) [Example 168, (1S,3S/1R,3R)-5-(3-{[4-methyl-5-(2-methylpyridin-3-yl)-4H-1,2,4-triazol-3-yl]sulfanyl}propyl)-1-[2-(trifluoromethyl)phenyl]-5-azaspiro[2.4]heptane dihydrochloride]
> 10		Cn1c(SCCCN2CC[C@]3(CC3c3ccccc3)C2)nnc1C1CCOCC1 (stereo partly drawn) [Example 80, (1R,3S/1S,3R)-5-(3-{[4-methyl-5-(oxan-4-yl)-4H-1,2,4-triazol-3-yl]-sulfanyl}propyl)-1-phenyl-5-azaspiro[2.4]heptane]
	6.87	Cn1c(SCCCN2CC[C@]3(CC3c3ccccc3C(F)(F)F)C2)nnc1-c1ccc(=O)[nH]c1 (stereo partly drawn) [Example 132, 5-[4-methyl-5-({3-[(1S,3S/1R,3R)-1-[2-(trifluoromethyl)phenyl]-5-azaspiro[2.4]heptan-5-yl]propyl}sulfanyl)-4H-1,2,4-triazol-3-yl]-1,2-dihydropyridin-2-one]
	6.54	Cn1c(SCCCN2CC[C@]3(CC3c3ccccc3C(F)(F)F)C2)nnc1-c1cc[nH]c(=O)c1 (stereo partly drawn) [Example 135, 4-[4-methyl-5-({3-[(1S,3S/1R,3R)-1-[2-(trifluoromethyl)phenyl]-5-azaspiro[2.4]heptan-5-yl]propyl}sulfanyl)-4H-1,2,4-triazol-3-yl]-1,2-dihydropyridin-2-one]
	6.16	Cn1c(SCCCN2CC[C@]3(CC3c3ccc(F)cc3F)C2)nnc1-c1ccc(=O)[nH]c1 (stereo partly drawn) [Example 130, 5-[5-({3-[(1S,3S/1R,3R)-1-(2,4-difluorophenyl)-5-azaspiro[2.4]heptan-5-yl]propyl}sulfanyl)-4-methyl-4H-1,2,4-triazol-3-yl]-1,2-dihydropyridin-2-one]
